Reference: publication PMC2746281 (PLoS ONE, 2009)

Columns and labels:
[1] = target: T1, c-Fms (Homo sapiens, UniProt P07333); assay: Recombinant kinase ELISA assay, c-Fms; format: biochemical; settings: recombinant human enzyme; ELISA-based assay, poly(Glu,Tyr 4:1) substrate
T1 construct: c-Fms (538–972; BC047531); 6xHN (N); made in house; host or cells: baculovirus, Sf9 insect cells
Description: (§1) Full details for the generation of recombinant human KIT intracellular domain and other protein kinases (including Lyn, platelet derived growth factor receptor β, epidermal growth factor receptor, fibroblast growth factor receptor 1, Src, HCK, PYK, FES, Btk, Bmx, c-Ret, c-Fms, Syk, and c-Met) are provided in the Supplemental Methods (see Supporting Information; Methods S1). Experiments on ABL1, Akt1, protein kinase C-α, insulin-like growth factor receptor 1, and Pim1 were carried out by Proqinase (Germany). All other recombinant protein kinases were performed in-house using an enzyme-linked immunoassay; experimental details are provided in the Supplemental Methods (see Supporting Information; Methods S1).
(§2) The sequences encoding PDGF receptor β (residues 554–1106; GenBank accession no. BC032224), Lyn B (2–583; accession no. BC059394), fibroblast growth factor receptor 1 (572–959; accession no. BC018128), Src (2–536; accession no. BC011566), Btk (2–659; accession no. BC109079), Bmx (2–675; accession no. BC016652), c-Ret (713–1114; accession no. BC004257), c-Fms (538–972; BC047531), Syk (2–612; BC011399), Hck (2-526; accession no. BC014435), Fes (2-822; accession no. BC035357), PYK2 (2-1006; accession no. BC042599) and c-Met (949–1398; accession no. lifeseq3489592) were amplified by PCR from IMAGE cDNA clones purchased from Openbiosystems. […]
T1 sequence (P07333 538-972): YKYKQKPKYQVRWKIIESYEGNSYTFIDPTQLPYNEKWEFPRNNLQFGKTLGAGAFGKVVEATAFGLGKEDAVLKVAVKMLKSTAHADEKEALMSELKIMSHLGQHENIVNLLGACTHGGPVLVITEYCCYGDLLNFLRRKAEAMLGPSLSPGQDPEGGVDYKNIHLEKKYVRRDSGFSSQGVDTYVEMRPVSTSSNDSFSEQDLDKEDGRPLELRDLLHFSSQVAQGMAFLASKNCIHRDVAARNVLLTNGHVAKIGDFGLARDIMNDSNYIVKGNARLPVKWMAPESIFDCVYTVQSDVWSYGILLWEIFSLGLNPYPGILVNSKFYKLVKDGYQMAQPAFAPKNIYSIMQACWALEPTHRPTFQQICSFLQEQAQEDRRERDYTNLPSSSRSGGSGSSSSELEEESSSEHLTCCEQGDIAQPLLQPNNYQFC

[2] = target: T2, Syk (Homo sapiens, UniProt P43405); assay: Recombinant kinase ELISA assay, Syk; format: biochemical; settings: recombinant human enzyme; ELISA-based assay, poly(Glu,Tyr 4:1) substrate
T2 construct: Syk (2–612; BC011399); 6xHN (N); made in house; host or cells: baculovirus, Sf9 insect cells
Description: as §1, §2

[3] = target: T3, Pim1 (Homo sapiens, UniProt P11309); assay: Recombinant kinase screen (Proqinase), Pim1; format: biochemical; settings: recombinant human enzyme; single experiment, kinase screen by Proqinase
T3 construct: purchased Proqinase (Germany)
T3 sequence (P11309 whole entry): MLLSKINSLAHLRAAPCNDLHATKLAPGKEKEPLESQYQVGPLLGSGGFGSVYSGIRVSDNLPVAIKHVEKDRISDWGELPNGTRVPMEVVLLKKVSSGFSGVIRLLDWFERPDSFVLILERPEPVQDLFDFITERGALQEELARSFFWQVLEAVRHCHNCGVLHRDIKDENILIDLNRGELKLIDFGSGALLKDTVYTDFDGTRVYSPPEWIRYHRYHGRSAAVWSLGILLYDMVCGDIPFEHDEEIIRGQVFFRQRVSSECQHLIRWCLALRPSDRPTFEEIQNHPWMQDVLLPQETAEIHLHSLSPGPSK
Description: as §1

[4] = target: T4, c-Fms (Homo sapiens, UniProt P07333); assay: Ba/F3 cell proliferation (WST-1), c-Fms; settings: Ba/F3 cells expressing the enzyme, read-out: Cell-based assay IC50, c-Fms
T4 construct: expressed in transfected cells; host or cells: Ba/F3 (general description; not repeated for this kinase)
T4 sequence (P07333 20-972): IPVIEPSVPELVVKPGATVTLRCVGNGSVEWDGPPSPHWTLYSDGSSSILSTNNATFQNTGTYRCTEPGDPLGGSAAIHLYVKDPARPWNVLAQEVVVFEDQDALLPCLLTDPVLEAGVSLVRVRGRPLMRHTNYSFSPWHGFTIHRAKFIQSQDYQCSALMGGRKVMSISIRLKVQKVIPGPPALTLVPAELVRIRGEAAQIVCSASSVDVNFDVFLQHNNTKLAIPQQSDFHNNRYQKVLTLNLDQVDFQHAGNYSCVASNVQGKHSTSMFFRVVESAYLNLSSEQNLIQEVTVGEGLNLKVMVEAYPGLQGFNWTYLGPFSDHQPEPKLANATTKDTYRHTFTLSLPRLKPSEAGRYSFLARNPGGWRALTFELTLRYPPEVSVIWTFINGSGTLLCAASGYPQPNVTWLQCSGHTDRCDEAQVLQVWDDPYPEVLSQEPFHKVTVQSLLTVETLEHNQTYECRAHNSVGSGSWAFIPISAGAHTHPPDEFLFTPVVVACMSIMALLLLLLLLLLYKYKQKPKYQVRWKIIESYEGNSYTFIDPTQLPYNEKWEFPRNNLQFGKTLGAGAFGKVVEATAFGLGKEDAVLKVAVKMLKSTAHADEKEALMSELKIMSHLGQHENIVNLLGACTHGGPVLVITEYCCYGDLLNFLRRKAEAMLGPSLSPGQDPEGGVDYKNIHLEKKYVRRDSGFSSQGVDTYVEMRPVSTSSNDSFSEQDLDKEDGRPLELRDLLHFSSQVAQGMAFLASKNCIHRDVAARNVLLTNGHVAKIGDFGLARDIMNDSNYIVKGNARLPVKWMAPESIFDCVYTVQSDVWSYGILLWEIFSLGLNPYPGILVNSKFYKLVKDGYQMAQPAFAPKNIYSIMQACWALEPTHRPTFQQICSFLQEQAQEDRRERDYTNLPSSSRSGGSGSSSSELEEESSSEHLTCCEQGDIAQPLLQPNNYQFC

[5] = target: Jak2 (Homo sapiens, UniProt O60674); assay: Ba/F3 cell proliferation (WST-1), Jak2; settings: Ba/F3 cells expressing the enzyme, read-out: Cell-based assay IC50, Jak2
Chain of Jak2 (O60674 whole entry): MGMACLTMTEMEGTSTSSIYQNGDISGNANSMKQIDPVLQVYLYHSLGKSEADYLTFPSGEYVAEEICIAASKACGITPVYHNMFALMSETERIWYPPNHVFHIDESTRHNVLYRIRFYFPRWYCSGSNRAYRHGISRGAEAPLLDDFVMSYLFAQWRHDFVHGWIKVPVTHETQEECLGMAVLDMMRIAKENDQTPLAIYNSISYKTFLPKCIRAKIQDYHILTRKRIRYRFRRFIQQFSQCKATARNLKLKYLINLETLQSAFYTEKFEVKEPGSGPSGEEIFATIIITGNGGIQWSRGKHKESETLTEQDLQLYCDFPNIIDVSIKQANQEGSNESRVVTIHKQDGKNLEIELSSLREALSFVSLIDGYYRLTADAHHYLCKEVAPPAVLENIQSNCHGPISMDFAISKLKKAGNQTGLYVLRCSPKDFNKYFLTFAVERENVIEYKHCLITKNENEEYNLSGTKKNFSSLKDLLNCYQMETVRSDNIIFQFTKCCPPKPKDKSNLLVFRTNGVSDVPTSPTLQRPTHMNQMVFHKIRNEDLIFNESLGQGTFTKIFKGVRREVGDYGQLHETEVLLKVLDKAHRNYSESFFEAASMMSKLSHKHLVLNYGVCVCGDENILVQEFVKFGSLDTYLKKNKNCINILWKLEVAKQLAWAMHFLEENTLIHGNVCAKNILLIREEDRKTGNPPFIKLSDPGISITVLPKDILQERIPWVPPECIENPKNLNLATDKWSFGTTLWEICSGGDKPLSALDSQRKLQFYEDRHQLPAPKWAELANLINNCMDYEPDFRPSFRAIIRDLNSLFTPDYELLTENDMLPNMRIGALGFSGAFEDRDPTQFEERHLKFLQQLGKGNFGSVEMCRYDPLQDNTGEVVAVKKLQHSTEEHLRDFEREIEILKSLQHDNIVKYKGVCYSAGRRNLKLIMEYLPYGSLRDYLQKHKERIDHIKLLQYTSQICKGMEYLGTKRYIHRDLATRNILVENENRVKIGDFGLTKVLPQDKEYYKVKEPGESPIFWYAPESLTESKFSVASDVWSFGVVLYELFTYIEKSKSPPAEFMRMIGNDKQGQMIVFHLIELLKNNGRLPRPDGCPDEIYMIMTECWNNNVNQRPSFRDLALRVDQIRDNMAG

[6] = tested on: human cord-blood-derived mast cells (CBMC); assay: FcεRI-mediated degranulation (β-hexosaminidase release) of IgE-anti IgE activated CBMC; format: cell-based; settings: Mast cell, 0.5 h, 30 minutes of stimulation
Description: (see Supporting Information; Methods S1). […] Assays of β-hexosaminidase release and TNF-α release were made by stimulating the CBMC with 1 µg/ml of goat anti-human IgE (Vector Laboratories) for 30 minutes or 4 hours, respectively. β-hexosaminidase was measured in the supernatant and in the sonicated cell pellets and its net release calculated. For TNF-α determination, the cell-free supernatants were collected by centrifugation and frozen at −80°C until determination of mediator content by the use of a specific ELISA kit according to manufacturer's instructions (Coulter, France). All assays were performed in duplicate and counts were repeated twice for each well.
Human CBMC were produced by long-term culture of CD34+ progenitors purified from normal cord-blood. […] At the beginning of the culture, rhIL-3 (1 ng/ml) (R&D Systems Europe, France) was also added to induce maximal expansion of haematopoietic progenitors. After 3 days the IL-3 was removed and 4 days later cells were transferred to a complete serum-free medium containing rmSCF at 100 ng/ml, which was renewed every 7 days thereafter. After 8 weeks in culture ≥99% of the cells were identified as being mast cells by May-Grünwald-Giemsa staining of cytocentrifuged samples.

[7] = tested on: cultured human lymphocytes; assay: Chromosome aberration test in cultured human lymphocytes; format: cell-based; settings: our unpublished results
[8] = tested on: mouse bone marrow cells; assay: Chromosome / mitotic apparatus damage in mouse bone marrow cells; format: in vivo; settings: two daily administrations at 437.5, 875, or 1750 mg/kg/day, our unpublished results
[9] = target: TrkB (Homo sapiens, UniProt Q16620); settings: read-out: Cell-based assay IC50, TrkB; Ba/F3 cells expressing the enzyme; cell proliferation, WST-1
Chain of TrkB (Q16620 32-822, species assumed): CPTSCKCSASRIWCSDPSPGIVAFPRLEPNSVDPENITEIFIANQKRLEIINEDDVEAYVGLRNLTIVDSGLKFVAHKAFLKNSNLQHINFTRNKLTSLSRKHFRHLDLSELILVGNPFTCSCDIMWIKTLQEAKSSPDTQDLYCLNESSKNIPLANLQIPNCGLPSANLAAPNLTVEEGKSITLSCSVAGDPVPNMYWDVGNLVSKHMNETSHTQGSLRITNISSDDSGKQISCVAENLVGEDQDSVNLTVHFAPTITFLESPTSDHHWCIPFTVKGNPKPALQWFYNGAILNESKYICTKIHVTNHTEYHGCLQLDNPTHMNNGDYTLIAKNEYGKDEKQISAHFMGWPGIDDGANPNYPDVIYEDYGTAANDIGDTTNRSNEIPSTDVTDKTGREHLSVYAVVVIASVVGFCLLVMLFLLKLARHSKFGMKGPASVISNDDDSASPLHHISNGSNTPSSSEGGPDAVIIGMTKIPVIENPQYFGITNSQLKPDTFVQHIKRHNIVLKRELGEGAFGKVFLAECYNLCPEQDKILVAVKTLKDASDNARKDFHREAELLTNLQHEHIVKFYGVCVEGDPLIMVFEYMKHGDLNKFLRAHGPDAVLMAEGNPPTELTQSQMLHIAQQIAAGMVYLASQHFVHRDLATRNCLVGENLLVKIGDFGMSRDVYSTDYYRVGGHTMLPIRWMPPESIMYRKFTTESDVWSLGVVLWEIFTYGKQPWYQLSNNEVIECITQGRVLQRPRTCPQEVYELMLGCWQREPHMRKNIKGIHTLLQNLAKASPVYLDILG

[10] = target: Insulin-like growth factor-I receptor (Homo sapiens, UniProt P08069); assay: Ba/F3 cell proliferation (WST-1), IGF-I receptor; design: expressed in transfected cells; host or cells: Ba/F3 (general description; not repeated for this kinase); settings: Ba/F3 cells expressing the enzyme, read-out: Cell-based assay IC50, Insulin-like growth factor-I receptor
Chain of Insulin-like growth factor-I receptor (P08069 31-1367): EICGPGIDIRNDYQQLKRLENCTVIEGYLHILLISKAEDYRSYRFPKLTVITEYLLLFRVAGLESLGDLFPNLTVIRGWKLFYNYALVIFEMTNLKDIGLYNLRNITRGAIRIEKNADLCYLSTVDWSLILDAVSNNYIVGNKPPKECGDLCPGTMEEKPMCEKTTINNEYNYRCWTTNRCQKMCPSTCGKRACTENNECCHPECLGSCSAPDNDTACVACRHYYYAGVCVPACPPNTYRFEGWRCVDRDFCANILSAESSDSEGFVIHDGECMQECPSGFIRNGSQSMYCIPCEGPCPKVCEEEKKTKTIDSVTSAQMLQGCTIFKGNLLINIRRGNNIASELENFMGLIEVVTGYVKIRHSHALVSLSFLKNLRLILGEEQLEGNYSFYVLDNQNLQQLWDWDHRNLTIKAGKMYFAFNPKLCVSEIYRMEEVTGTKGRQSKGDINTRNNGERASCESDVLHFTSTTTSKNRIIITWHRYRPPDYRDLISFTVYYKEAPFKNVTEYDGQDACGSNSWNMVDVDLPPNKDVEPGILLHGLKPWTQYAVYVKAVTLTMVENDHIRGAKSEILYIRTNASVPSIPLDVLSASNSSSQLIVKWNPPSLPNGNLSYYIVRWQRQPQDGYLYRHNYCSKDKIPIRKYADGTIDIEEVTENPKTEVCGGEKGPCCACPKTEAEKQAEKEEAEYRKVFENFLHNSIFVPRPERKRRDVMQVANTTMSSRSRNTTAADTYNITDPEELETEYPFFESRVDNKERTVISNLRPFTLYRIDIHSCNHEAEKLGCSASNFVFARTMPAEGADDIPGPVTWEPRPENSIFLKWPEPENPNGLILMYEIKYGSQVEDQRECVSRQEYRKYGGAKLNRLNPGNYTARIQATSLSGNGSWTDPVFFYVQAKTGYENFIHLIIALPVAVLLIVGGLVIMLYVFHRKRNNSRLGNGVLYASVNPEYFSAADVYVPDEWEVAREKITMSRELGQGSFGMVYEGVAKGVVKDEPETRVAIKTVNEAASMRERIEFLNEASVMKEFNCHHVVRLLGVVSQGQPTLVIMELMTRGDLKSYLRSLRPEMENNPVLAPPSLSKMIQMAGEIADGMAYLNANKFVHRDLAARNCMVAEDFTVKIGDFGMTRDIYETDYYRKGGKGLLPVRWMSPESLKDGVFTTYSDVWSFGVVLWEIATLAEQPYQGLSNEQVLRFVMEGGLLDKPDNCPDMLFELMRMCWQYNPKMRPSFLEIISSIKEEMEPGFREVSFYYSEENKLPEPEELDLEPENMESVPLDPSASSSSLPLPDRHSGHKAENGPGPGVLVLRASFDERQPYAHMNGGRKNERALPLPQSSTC

[11] = target: PDGFRβ (Homo sapiens, UniProt P09619); assay: Recombinant kinase ELISA assay, PDGFRβ; format: biochemical; design: PDGF receptor β (residues 554–1106; BC032224); 6xHN (N); made in house; host or cells: baculovirus, Sf9 insect cells; settings: recombinant human enzyme; ELISA-based assay, poly(Glu,Tyr 4:1) substrate
Description: as §1

## CS(=O)(=O)O.CS(=O)(=O)O.Cc1ccc(NC(=O)c2ccc(CN3CCN(C)CC3)cc2)cc1Nc1nc(-c2cccnc2)cs1 [masitinib, 4-(4-methylpiperazin-1-ylmethyl)-N-[4-methyl-3-(4-pyridin-3ylthiazol-2-ylamino)phenyl]benzamide-mesylate methane sulfonic acid salt]
[1]
  IC50: 1.48 ± 0.54 µM
[2]
  IC50: > 10 µM
[3]
  IC50: > 10 µM
[4]
  IC50: 1 ± 0.03 µM
[5]
  IC50: 10 ± 0.8 µM
[6]; 0.1 µM
  inhibition at 0.1 µM: 7%
[6]; 1.0 µM
  inhibition at 1 µM: 18%
[6]; 10 µM
  inhibition at 10 µM: 35%
[7]
  chromosome aberrations: does not cause chromosome aberrations
[8]
  damage to chromosomes or the mitotic apparatus: does not cause damage to chromosomes or the mitotic apparatus
[9]
  IC50: 7 ± 1.9 µM
[10]
  IC50: 10 ± 0.67 µM
[11]
  IC50: 0.8 ± 0.12 µM
